Laboratory results from EP4782453A1 (Beyang Therapeutics Co., Ltd., priority 2023, dated 2025).
Like-named read-outs stand apart in the source and are kept apart here.

Key:
[1] = target: T1, Menin-MLL (Homo sapiens, UniProt O00255); test: Inhibitory activity against Menin-MLL binding (fluorescence polarization); settings: 150 nM His-Menin, 15 nM FITC-MLL, 25°C for 60 min
T1 construct: His-Menin (M1-L615 end); purchased BIORTUS BP9210
T1 sequence (O00255 1-615 isoform O00255-1): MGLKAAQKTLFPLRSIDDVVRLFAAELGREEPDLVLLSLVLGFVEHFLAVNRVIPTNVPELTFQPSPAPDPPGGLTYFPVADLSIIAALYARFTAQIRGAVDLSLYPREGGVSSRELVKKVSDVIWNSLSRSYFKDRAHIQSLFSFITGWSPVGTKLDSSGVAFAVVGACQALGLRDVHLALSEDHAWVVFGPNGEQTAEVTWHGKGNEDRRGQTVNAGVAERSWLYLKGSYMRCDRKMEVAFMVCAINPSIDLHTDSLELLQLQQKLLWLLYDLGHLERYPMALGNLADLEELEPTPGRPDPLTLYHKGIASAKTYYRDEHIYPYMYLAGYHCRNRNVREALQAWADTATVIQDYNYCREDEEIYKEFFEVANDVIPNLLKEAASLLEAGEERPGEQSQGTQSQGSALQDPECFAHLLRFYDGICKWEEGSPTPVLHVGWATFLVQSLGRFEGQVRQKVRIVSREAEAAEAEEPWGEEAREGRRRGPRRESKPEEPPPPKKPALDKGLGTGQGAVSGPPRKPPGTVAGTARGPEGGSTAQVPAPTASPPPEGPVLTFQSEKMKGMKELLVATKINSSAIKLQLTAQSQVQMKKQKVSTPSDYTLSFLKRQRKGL
Procedure, shortened: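 Fluorescence polarization competition: compound and 150 nM His-tagged menin (residues M1-L615) sit 15 min at 25 °C in pH 7.5 HEPES buffer with NaCl, DTT and BSA; 15 nM FITC-labelled MLL peptide then binds for 60 min. IC50 fitted sigmoidally from mP values, duplicate wells.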

[2] = system: MV-4-11 (carrying MLL-AF4); test: Inhibition of proliferation of human tumor cells (Alamar Blue, 7 days), MV-4-11; type: cell-based; settings: Homo sapiens, MV4-11, 168 h, MV-4-11 cells (carrying MLL-AF4), method calls the value GI50
Procedure, shortened: (§1)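 GI50 values reflect growth inhibition over 7 days, read by Alamar Blue. Seeding density was 4,000 cells/well except KG-1a (3,000 cells/well); each line grew in its own FBS-containing medium at 37°C.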

[3] = system: MOLM-13 (carrying MLL-AF9); test: Inhibition of proliferation of human tumor cells (Alamar Blue, 7 days), MOLM-13; type: cell-based; settings: Homo sapiens, MOLM-13 cells (carrying MLL-AF9), method calls the value GI50
Procedure, shortened: as §1

[4] = system: KG-1a (wild-type MLL); test: Inhibition of proliferation of human tumor cells (Alamar Blue, 7 days), KG-1a control cell line; type: cell-based; settings: 168 h, KG-1a cells (wild-type MLL, control cell line), method calls the value GI50
From the text: Experimental Example 2: Evaluation of Inhibitory Activity of Compounds Against Proliferation of Human Tumor Cells
• Human acute lymphoblastic leukemia cells MV-4-11, purchased from American Type Culture Collection, Catalog Number: CRL-9591; • Human acute myeloid leukemia cells MOLM-13, purchased from COBIOER BIOSCIENCES CO., LTD, Catalog Number: CBP60678; • Human acute myeloid leukemia cells KG-1a, purchased from American Type Culture Collection, Catalog Number: CCL-246.1; • Inverted Microscope, purchased from Olympus Tokyo; • Countess™ Automated Cell Counter, purchased from Invitrogen, Model: C10281; and • Multilabel Reader, purchased from Bio-Tek, Model: Synergy HT.
MV-4-11 cells were cultured in an IMDM medium containing 10% fetal bovine serum, KG-a cells were cultured in an IMDM medium containing 20% fetal bovine serum, or MOLM-13 cells were cultured in an RPMI-1640 medium containing 20% fetal bovine serum, each supplemented with 100 U·mL^-1 penicillin and 100 µg·mL^-1 streptomycin. These cells were cultured at 37°C with 5% CO2. The suspensions of individual cell lines were prepared in their respective media and seeded into 96-well plates at a density of 4,000 cells/well for MV-4-11 and MOLM-13 cells, or 3,000 cells/well for KG-1a cells. On the day of the experiment, a compound stock solution was diluted in a 3-fold or 4-fold gradient using DMSO. Each gradient-diluted stock solution was then further diluted 250-fold with a complete medium to prepare a series of working solutions at different concentrations. Subsequently, 100 µL of working solution (containing a 2-fold concentration series of the test compound) was added to each well, with duplicate wells set up for each concentration.
Seven days after compound addition (on Day 7), an Alamar Blue assay reagent (MCE, HY-111391 / CS-0040317) was added to measure the fluorescence intensity in each well. Wells containing the cells in the growth medium supplemented with 0.1% DMSO (Day 7) served as high-read control wells. The readouts from the wells containing the cells in the growth medium supplemented with 0.1% DMSO on the day of compound addition (Day 0) served as low-reading control well. GraphPad Prism software was used to calculate the concentration required to inhibit 50% of cell proliferation (GI50), which serves as a cell proliferation inhibition activity index.

[5] = Menin-MLL IC50, fluorescence polarization
[6] = fluorescence polarization, read-out: Menin-MLL IC50

IC50 [2] | IC50 [4] | IC50 [1, 6] | IC50 ([3]; 168 h) | SMILES | IC50 [1, 5] | IC50 ([3]; MOLM-13, 168 h)
7.9 nM | 11000 nM | 11.7 nM | 39 nM | COCC1CN(CCC[C@H](C(C)C)N2CC(c3cc(-c4ccc(F)cc4C(=O)N4CCOC[C@H]4C)c4cnn(C)c4c3)C2)C1 [Example 183-2] | – | –
11 nM | 20000 nM | 10 nM | 45 nM | CCN(C(=O)c1cc(F)ccc1-c1cc(C2CN(CC3CCN(C(C)=O)CC3)C2)cn2c(C)ncc12)C(C)C [Example 289, 2-(6-{1-[(1-acetylpiperidin-4-yl)methyl]azacyclobutan-3-yl}-3-methylimidazo[1,5-a]pyridin-8-yl)-N-ethyl-5-fluoro-N-(isopropyl)benzamide] | – | –
16 nM | 20000 nM | 9.5 nM | 39 nM | Cc1nc(F)c2c(-c3ccc(F)cc3C(=O)N3CCOC[C@H]3C)cc(C3CN([C@H](CC[C@H]4CNCCO4)C(C)C)C3)cn12 [Example 244-1, (3R)-4-[5-fluoro-2-(1-fluoro-3-methyl-6-{1-[(3R)-4-methyl-1-[(2S)-morpholin-2-yl]pentan-3-yl]azacyclobutan-3-yl}imidazo[1,5-a]pyridin-8yl)benzoyl]-3-methylmorpholine] | – | –
2.1 nM | 20000 nM | 3.3 nM | 5.6 nM | COCC1CN(CCC[C@H](C(C)C)N2CC(c3cc(-c4ccc(F)cc4C(=O)N4CCOC[C@H]4C)c4c(F)nc(C)n4c3)C2)C1 [Example 203] | – | –
6.6 nM | 20000 nM | 8.5 nM | 40 nM | Cc1nc(F)c2c(-c3ccc(F)cc3C(=O)N3CCOC[C@H]3C)cc(C3CN([C@H](CC[C@@H]4CNCCO4)C(C)C)C3)cn12 [Example 245-1, (3R)-4-[5-fluoro-2-(1-fluoro-3-methyl-6-{1-[(3R)-4-methyl-1-[(2R)-morpholin-2-yl]pentan-3-yl]azacyclobutan-3-yl}imidazo[1,5-a]pyridin-8yl)benzoyl]-3-methylmorpholine] | – | –
3.3 nM | 3300 nM | 3.5 nM | 26 nM | CCN(C(=O)c1cc(F)ccc1-c1cc(C2CCN(CCc3ccc(-c4cc(OC)c(OC)nn4)cc3)CC2)cn2cncc12)C(C)C [Compound 42, 2-[6-(1-{2-[4-(5,6-dimethoxypyridazin-3-yl)phenyl]ethyl}piperidin-4-yl)imidazo[1,5-a]pyridin-8-yl]-N-ethyl-5-fluoro-N-(isopropyl)benzamide] | – | –
3.5 nM | 20000 nM | 3.5 nM | 15 nM | Cc1cncc2c(-c3ccc(F)cc3C(=O)N(CC(F)F)C(C)C)cc(CC3CN(CC4CCOCC4)C3)n12 [Example 206, N-(2,2-difluoroethyl)-5-fluoro-2-[4-methyl-6-({1-[(oxacyclohexan-4-yl)methyl]azacyclobutan-3-yl}methyl)pyrrolo[1,2-a]pyrazin-8-yl]-N-(isopropyl)benzamide] | – | –
4.6 nM | 20000 nM | 3.5 nM | 19 nM | Cc1cncc2c(-c3ccc(F)cc3C(=O)N3CCOC[C@H]3C)cc(CC3CN(CC4CCN(C(=O)C5CC5)CC4)C3)n12 [Example 286, (3R)-4-{2-[6-({1-[(1-cyclopropanecarbonylpiperidin-4-yl)methyl]azacyclobutan-3-yl}methyl)-4-methylpyrrolo[1,2-a]pyrazin-8-yl]-5-fluorobenzoyl}-3-methylmorpholine] | – | –
5.3 nM | 20000 nM | 7 nM | 13 nM | Cc1nc(F)c2c(-c3ccc(F)cc3C(=O)N3CCOC[C@H]3C)cc(C3CN([C@@H](C)C4CCN(C(=O)CC#N)CC4)C3)cn12 [Example 263-2] | – | –
2.1 nM | 5300 nM | 8.5 nM | 8.3 nM | COCCN(C)CCCC(C(C)C)N1CC(c2cc(-c3ccc(F)cc3C(=O)N(CC(F)F)C(C)C)c3cnc(C)n3c2)C1 (stereo not shown) [Example 149] | – | –
9 nM | 20000 nM | 6 nM | 48 nM | CCC(=O)N1CCC(CN2CC(Cc3cc(-c4ccc(F)cc4C(=O)N4CCOC[C@H]4C)c4cncc(C)n34)C2)CC1 [Example 287] | – | –

SMILES | IC50 [2] | IC50 [4] | IC50 [1, 6] | IC50 ([3]; 168 h) | IC50 [1, 5] | IC50 ([3]; MOLM-13, 168 h)
CCN(C(=O)c1cc(F)ccc1-c1cc([C@H]2CC[C@@H](NCc3ccc(-c4cc(OC)c(OC)nn4)cc3)CC2)cn2cncc12)C(C)C [Example 18-1, N-ethyl-5-fluoro-N-(isopropyl)-2-{6-[(1s,4s)-4-({[4-(5,6-dimethoxypyridazin-3-yl)phenyl]methyl}amino)cyclohexyl]imidazo[1,5-a]pyridin-8-yl}benzamide] | 18 nM | 9700 nM | – | – | 6 nM | 61 nM
CCS(=O)(=O)N[C@H]1CC[C@H](CN2CC(c3cc(-c4ccc(F)cc4C(=O)N4[C@H](C)COC[C@H]4C)c4cnn(C)c4c3)C2)CC1 [Example 168] | 32 nM | 20000 nM | – | – | 32.5 nM | 104 nM
CCN(C(=O)c1cc(F)ccc1-c1cc([C@H]2CC[C@H](NCc3ccc(-c4cc(OC)c(OC)nn4)cc3)CC2)cn2cncc12)C(C)C [Example 18-2, N-ethyl-5-fluoro-N-(isopropyl)-2-{6-[(1r,4r)-4-({[4-(5,6-dimethoxypyridazin-3-yl)phenyl]methyl}amino)cyclohexyl]imidazo[1,5-a]pyridin-8-yl}benzamide] | 9.4 nM | 6500 nM | – | – | 5.5 nM | 43 nM
CCS(=O)(=O)N[C@H]1CC[C@H](CN2CC(c3cc(-c4ccc(F)cc4C(=O)N4CCOC[C@H]4C)c4c(F)nc(C)n4c3)C2)CC1 [Example 145, N-[(1r,4r)-4-{[3-(1-fluoro-8-{4-fluoro-2-[(3R)-3-methylmorpholin-4-carbonyl]phenyl}-3-methylimidazo[1,5-a]pyridin-6-yl)azacyclobutan-1-yl]methyl}cyclohexyl]ethan-1-sulfonamide] | 13 nM | 19000 nM | – | – | 18 nM | 29.5 nM
CCN(C(=O)c1cc(F)ccc1-c1cc(C2CN(C(=O)C3NC4CCC3CC4)C2)cn2c(C)ncc12)C(C)C [Example 90, N-ethyl-5-fluoro-2-(3-methyl-6-{1-[(1R,3S,4S)-2-azabicyclo[2.2.2]octan-3-carbonyl]azacyclobutan-3-yl}imidazo[1,5-a]pyridin-8-yl)-N-(isopropyl)benzamide] | 20 nM | 20000 nM | – | – | 11 nM | 99 nM
